Assay results as given in patent publication US11771738B2 (Zoetis Services LLC, priority 2018, dated 2023).
Like-named read-outs stand apart in the source and are kept apart here. Marks after values point to notes of the source that are not given here.

Assays:
Assay type in all cases: cell-based
[1] = tested on: third stage larvae of Haemonchus contortus; assay: Haemonchus contortus, Larvae Stage 3 (HcL3) In Vitro Assay; settings: for minimal effective concentration: Haemonchus contortus, 96 h; for HcL3 MED (symbol after Ex#): approximately 96 hours incubation
[2] = tested on: microfilariae of Dirofilaria immitis; assay: Dirofilaria immitis, Microfilaria (DiMf) In Vitro Assay; settings: Dirofilaria immitis, 72 h, read-out: DiMf MED, Minimum Effective Dose, D. immitis microfilariae motility, in vitro
D. immitis L4 larvae = assay: Dirofilaria immitis, L4 Stage (DiL4) In Vitro Assay; settings: for minimal effective concentration: Dirofilaria immitis, 72 h, read-out: DiL4 MED, Minimum Effective Dose, D. immitis L4 larvae motility, in vitro; for DiMf/DiL4: larval stage selectivity, ratio of DiMf MED to DiL4 MED
[3] = read-out: HcL3 MED, Minimum Effective Dose, H. contortus third stage larvae, approximately 96 hours
[4] = multiple-resistant field isolate

## COc1cccc(Cc2ccc(C[C@H]3OC(=O)[C@H](CC(C)C)N(C)C(=O)[C@@H](C)OC(=O)[C@H](CC(C)C)N(C)C(=O)[C@@H](Cc4ccc(Cc5cccc(OC)c5)cc4)OC(=O)[C@H](CC(C)C)N(C)C(=O)[C@@H](C)OC(=O)[C@H](CC(C)C)N(C)C3=O)cc2)c1 [Example 1-5, (3S,6R,9S,12R,15S,18R,21S,24R)-3,9,15,21-tetraisobutyl-6,18-bis(4-(3-methoxybenzyl)benzyl)-4,10,12,16,22,24-hexamethyl-1,7,13,19-tetraoxa-4,10,16,22-tetraazacyclotetracosan-2,5,8,11,14,17,20,23-octaone]
[1]; [3]
  minimal effective concentration: > 100 µM
[2]
  minimal effective concentration: 0.5 µM
D. immitis L4 larvae
  minimal effective concentration: 0.001 µM
  DiMf/DiL4: 500

## COc1ccccc1Cc1ccc(C[C@H]2OC(=O)[C@H](CC(C)C)N(C)C(=O)[C@@H](C)OC(=O)[C@H](CC(C)C)N(C)C(=O)[C@@H](Cc3ccc(Cc4ccccc4OC)cc3)OC(=O)[C@H](CC(C)C)N(C)C(=O)[C@@H](C)OC(=O)[C@H](CC(C)C)N(C)C2=O)cc1 [Example 1-11, (3S,6R,9S,12R,15S,18R,21S,24R)-3,9,15,21-tetraisobutyl-6,18-bis(4-(2-methoxybenzyl)benzyl)-4,10,12,16,22,24-hexamethyl-1,7,13,19-tetraoxa-4,10,16,22-tetraazacyclotetracosan-2,5,8,11,14,17,20,23-octaone]
[1]; [3]
  minimal effective concentration: > 10 µM
[2]
  minimal effective concentration: 0.3 µM
D. immitis L4 larvae
  minimal effective concentration: 0.001 µM
  DiMf/DiL4: 300

## Cc1cnsc1Cc1ccc(C[C@H]2OC(=O)[C@H](CC(C)C)N(C)C(=O)[C@@H](C)OC(=O)[C@H](CC(C)C)N(C)C(=O)[C@@H](Cc3ccc(Cc4sncc4C)cc3)OC(=O)[C@H](CC(C)C)N(C)C(=O)[C@@H](C)OC(=O)[C@H](CC(C)C)N(C)C2=O)cc1 [Example 3-288, (3S,6R,9S,12R,15S,18R,21S,24R)-3,9,15,21-tetraisobutyl-4,6,10,16,18,22-hexamethyl-12,24-bis(4-((4-methylisothiazol-5-yl)methyl)benzyl)-1,7,13,19-tetraoxa-4,10,16,22-tetraazacyclotetracosan-2,5,8,11,14,17,20,23-octaone]
[1]; read-out: HcL3 MED, Haemonchus contortus third stage larvae in vitro, class mark appended to the Ex # in Table 3
  minimal effective concentration: < 1 µM
[1]; read-out: HcL3 MED, approximately 96 hours incubation, multiple-resistant field isolate
  minimal effective concentration: ≤ 1 µM
[1]; Minimum Effective Dose, H. contortus third stage larvae, approximately 96 hours, listed as (3-288)
  HcL3 MED: 0.2 µM
D. immitis L4 larvae; Minimum Effective Dose, D. immitis L4 larvae motility, in vitro, listed as (3-288)
  DiL4 MED: 0.1 nM
D. immitis L4 larvae; listed as (3-288)
  DiMf/DiL4: 30

## COc1ncc(Cl)cc1Cc1ccc(C[C@H]2OC(=O)[C@H](CC(C)C)N(C)C(=O)[C@@H](C)OC(=O)[C@H](CC(C)C)N(C)C(=O)[C@@H](Cc3ccc(Cc4cc(Cl)cnc4OC)cc3)OC(=O)[C@H](CC(C)C)N(C)C(=O)[C@@H](C)OC(=O)[C@H](CC(C)C)N(C)C2=O)cc1 [Example 3-332, (3S,6R,9S,12R,15S,18R,21S,24R)-6,18-bis(4-((5-chloro-2-methoxypyridin-3-yl)methyl)benzyl)-3,9,15,21-tetraisobutyl-4,10,12,16,22,24-hexamethyl-1,7,13,19-tetraoxa-4,10,16,22-tetraazacyclotetracosan-2,5,8,11,14,17,20,23-octaone]
[2]
  minimal effective concentration: 0.3 µM
D. immitis L4 larvae
  minimal effective concentration: 0.0005 µM
  DiMf/DiL4: 548

## CC(C)C[C@H]1C(=O)O[C@H](Cc2ccc(Cc3cncs3)cc2)C(=O)N(C)[C@@H](CC(C)C)C(=O)O[C@H](C)C(=O)N(C)[C@@H](CC(C)C)C(=O)O[C@H](Cc2ccccc2)C(=O)N(C)[C@@H](CC(C)C)C(=O)O[C@H](C)C(=O)N1C [Example 4-35]
[1]; [4]
  HcL3 MED (symbol after Ex#): 4-35^ (Examples with a carrot (^) have HcL3 MED values>1 and ≤3.3 μM)

## CC(C)C[C@H]1C(=O)O[C@H](Cc2ccc(Cc3ccsn3)cc2)C(=O)N(C)[C@@H](CC(C)C)C(=O)O[C@H](C)C(=O)N(C)[C@@H](CC(C)C)C(=O)O[C@H](Cc2ccccc2)C(=O)N(C)[C@@H](CC(C)C)C(=O)O[C@H](C)C(=O)N1C [Example 4-36]
[1]; [4]
  HcL3 MED (symbol after Ex#): 4-36^ (Examples with a carrot (^) have HcL3 MED values>1 and ≤3.3 μM)

## Cc1cc(Cc2ccc(C[C@H]3OC(=O)[C@H](CC(C)C)N(C)C(=O)[C@@H](C)OC(=O)[C@H](CC(C)C)N(C)C(=O)[C@@H](Cc4ccccc4)OC(=O)[C@H](CC(C)C)N(C)C(=O)[C@@H](C)OC(=O)[C@H](CC(C)C)N(C)C3=O)cc2)n(C)n1 [Example 4-42]
[1]; [4]
  HcL3 MED (symbol after Ex#): 4-42^ (Examples with a carrot (^) have HcL3 MED values>1 and ≤3.3 μM)

## CC(C)C[C@H]1C(=O)O[C@H](Cc2ccc(Cc3cocn3)cc2)C(=O)N(C)[C@@H](CC(C)C)C(=O)O[C@H](C)C(=O)N(C)[C@@H](CC(C)C)C(=O)O[C@H](Cc2ccccc2)C(=O)N(C)[C@@H](CC(C)C)C(=O)O[C@H](C)C(=O)N1C [Example 4-52]
[1]; [4]
  HcL3 MED (symbol after Ex#): 4-52* (Examples with an asterisk (*) have HcL3 MED values≤1 μM)

## Cc1scnc1C(O)c1ccc(C[C@H]2OC(=O)[C@H](CC(C)C)N(C)C(=O)[C@@H](C)OC(=O)[C@H](CC(C)C)N(C)C(=O)[C@@H](Cc3ccccc3)OC(=O)[C@H](CC(C)C)N(C)C(=O)[C@@H](C)OC(=O)[C@H](CC(C)C)N(C)C2=O)cc1 (some centres unmarked) [Example 4-56]
[1]; [4]
  HcL3 MED (symbol after Ex#): 4-56^ (Examples with a carrot (^) have HcL3 MED values>1 and ≤3.3 μM)

## Cc1nc(Cc2ccc(C[C@H]3OC(=O)[C@H](CC(C)C)N(C)C(=O)[C@@H](C)OC(=O)[C@H](CC(C)C)N(C)C(=O)[C@@H](Cc4ccccc4)OC(=O)[C@H](CC(C)C)N(C)C(=O)[C@@H](C)OC(=O)[C@H](CC(C)C)N(C)C3=O)cc2)cs1 [Example 4-66]
[1]; [4]
  HcL3 MED (symbol after Ex#): 4-66^ (Examples with a carrot (^) have HcL3 MED values>1 and ≤3.3 μM)

## CC(C)C[C@H]1C(=O)O[C@H](Cc2ccc(C(O)c3sccc3Cl)cc2)C(=O)N(C)[C@@H](CC(C)C)C(=O)O[C@H](C)C(=O)N(C)[C@@H](CC(C)C)C(=O)O[C@H](Cc2ccccc2)C(=O)N(C)[C@@H](CC(C)C)C(=O)O[C@H](C)C(=O)N1C (some centres unmarked) [Example 4-77]
[1]; [4]
  HcL3 MED (symbol after Ex#): 4-77^ (Examples with a carrot (^) have HcL3 MED values>1 and ≤3.3 μM)

## Cc1nc(Cc2ccc(C[C@H]3OC(=O)[C@H](CC(C)C)N(C)C(=O)[C@@H](C)OC(=O)[C@H](CC(C)C)N(C)C(=O)[C@@H](Cc4ccccc4)OC(=O)[C@H](CC(C)C)N(C)C(=O)[C@@H](C)OC(=O)[C@H](CC(C)C)N(C)C3=O)cc2)co1 [Example 4-83]
[1]; [4]
  HcL3 MED (symbol after Ex#): 4-83^ (Examples with a carrot (^) have HcL3 MED values>1 and ≤3.3 μM)

## Cc1csc(Cc2ccc(C[C@H]3OC(=O)[C@H](CC(C)C)N(C)C(=O)[C@@H](C)OC(=O)[C@H](CC(C)C)N(C)C(=O)[C@@H](Cc4ccccc4)OC(=O)[C@H](CC(C)C)N(C)C(=O)[C@@H](C)OC(=O)[C@H](CC(C)C)N(C)C3=O)cc2)n1 [Example 4-90]
[1]; [4]
  HcL3 MED (symbol after Ex#): 4-90^ (Examples with a carrot (^) have HcL3 MED values>1 and ≤3.3 μM)

## Cc1nc(C)c(Cc2ccc(C[C@H]3OC(=O)[C@H](CC(C)C)N(C)C(=O)[C@@H](C)OC(=O)[C@H](CC(C)C)N(C)C(=O)[C@@H](Cc4ccccc4)OC(=O)[C@H](CC(C)C)N(C)C(=O)[C@@H](C)OC(=O)[C@H](CC(C)C)N(C)C3=O)cc2)o1 [Example 4-91]
[1]; [4]
  HcL3 MED (symbol after Ex#): 4-91^ (Examples with a carrot (^) have HcL3 MED values>1 and ≤3.3 μM)

## Cc1cnc(Cc2ccc(C[C@H]3OC(=O)[C@H](CC(C)C)N(C)C(=O)[C@@H](C)OC(=O)[C@H](CC(C)C)N(C)C(=O)[C@@H](Cc4ccccc4)OC(=O)[C@H](CC(C)C)N(C)C(=O)[C@@H](C)OC(=O)[C@H](CC(C)C)N(C)C3=O)cc2)s1 [Example 4-94]
[1]; [4]
  HcL3 MED (symbol after Ex#): 4-94^ (Examples with a carrot (^) have HcL3 MED values>1 and ≤3.3 μM)

## Cc1ccc(Cc2ccc(C[C@H]3OC(=O)[C@H](CC(C)C)N(C)C(=O)[C@@H](C)OC(=O)[C@H](CC(C)C)N(C)C(=O)[C@@H](Cc4ccccc4)OC(=O)[C@H](CC(C)C)N(C)C(=O)[C@@H](C)OC(=O)[C@H](CC(C)C)N(C)C3=O)cc2)cn1 [Example 4-101]
[1]; [4]
  HcL3 MED (symbol after Ex#): 4-101^ (Examples with a carrot (^) have HcL3 MED values>1 and ≤3.3 μM)

## CC(C)C[C@H]1C(=O)O[C@H](Cc2ccc(Cc3ncc(Cl)s3)cc2)C(=O)N(C)[C@@H](CC(C)C)C(=O)O[C@H](C)C(=O)N(C)[C@@H](CC(C)C)C(=O)O[C@H](Cc2ccccc2)C(=O)N(C)[C@@H](CC(C)C)C(=O)O[C@H](C)C(=O)N1C [Example 4-111]
[1]; [4]
  HcL3 MED (symbol after Ex#): 4-111^ (Examples with a carrot (^) have HcL3 MED values>1 and ≤3.3 μM)

## Cc1nc(Cc2ccc(C[C@H]3OC(=O)[C@H](CC(C)C)N(C)C(=O)[C@@H](C)OC(=O)[C@H](CC(C)C)N(C)C(=O)[C@@H](Cc4ccccc4)OC(=O)[C@H](CC(C)C)N(C)C(=O)[C@@H](C)OC(=O)[C@H](CC(C)C)N(C)C3=O)cc2)sc1C [Example 4-115]
[1]; [4]
  HcL3 MED (symbol after Ex#): 4-115^ (Examples with a carrot (^) have HcL3 MED values>1 and ≤3.3 μM)

## Cc1nnsc1Cc1ccc(C[C@H]2OC(=O)[C@H](CC(C)C)N(C)C(=O)[C@@H](C)OC(=O)[C@H](CC(C)C)N(C)C(=O)[C@@H](Cc3ccccc3)OC(=O)[C@H](CC(C)C)N(C)C(=O)[C@@H](C)OC(=O)[C@H](CC(C)C)N(C)C2=O)cc1 [Example 4-116]
[1]; [4]
  HcL3 MED (symbol after Ex#): 4-116^ (Examples with a carrot (^) have HcL3 MED values>1 and ≤3.3 μM)

## CC(C)C[C@H]1C(=O)O[C@H](Cc2ccc(Cc3cnco3)cc2)C(=O)N(C)[C@@H](CC(C)C)C(=O)O[C@H](C)C(=O)N(C)[C@@H](CC(C)C)C(=O)O[C@H](Cc2ccccc2)C(=O)N(C)[C@@H](CC(C)C)C(=O)O[C@H](C)C(=O)N1C [Example 4-135]
[1]; [4]
  HcL3 MED (symbol after Ex#): 4-135^ (Examples with a carrot (^) have HcL3 MED values>1 and ≤3.3 μM)
